Experimental data as given in patent US20120077831A1, “METHODS AND ASSAYS FOR THE TREATMENT OF IRRITABLE BOWEL SYNDROME” (priority 2009, published 2012).

Tests used:
[1] = system: patients suffering from IBS-D or IBS-A; assay: phase 2a clinical trial in IBS patients: weekly global assessment and Bristol Stool Scale; type: in vivo, human
Experimental: (§1) A randomized, double-blind, placebo-controlled phase 2a clinical trial was conducted to assess the safety and efficacy of a TPH inhibitor, (S)-2-amino-3-(4-(2-amino-6-((R)-2,2,2-trifluoro-1-(3′-methoxybiphenyl-4-yl)ethoxy)pyrimidin-4-yl)phenyl)propanoic acid, in 155 patients suffering from IBS-D or IBS-A, based on Rome III criteria. Capsules containing the compound or placebo were orally administered. Two dose levels were tested: 250 mg QID and 1000 mg QID. A two-week run-in period was used to establish baseline symptoms, followed by a 28 day randomized, double-blind treatment period. There was then a two-week follow-up period.
(§2) During the study, patients' urine and blood were obtained to assess 5-HIAA and 5-HT levels. Methods used to assess clinical endpoints were: 1) global assessment by weekly questioning regarding adequate relief of IBS pain and discomfort; and 2) Bristol Stool Scale was used to assess stool consistency by daily automated telephonic IVRS contact.

5-HIAA and 5-HT levels = assay: phase 2a clinical trial in IBS patients: blood 5-HT and 24 hour urinary 5-HIAA levels; type: in vivo, human; conditions: oral dosing
Experimental: as §1, §2

## COc1cccc(-c2ccc([C@@H](Oc3cc(-c4ccc(C[C@H](N)C(=O)O)cc4)nc(N)n3)C(F)(F)F)cc2)c1 [(S)-2-amino-3-(4-(2-amino-6-((R)-2,2,2-trifluoro-1-(3′-methoxybiphenyl-4-yl)ethoxy)pyrimidin-4-yl)phenyl)propanoic acid]
[1]; IBS patients with comparatively high baseline levels versus those without
  improvement in global response in relation to baseline serotonin levels (5-HIAA in 24 hour urine prior to dosing): greater beneficial effect in IBS patients who had comparatively high baseline levels
[1]; high dose arm (1000 mg QID, oral capsules) versus placebo, 28 day treatment period
  weekly global assessment (adequate relief of IBS pain and discomfort): statistically significant improvement versus placebo
[1]; high dose arm (1000 mg QID, oral capsules), 28 day treatment period
  stool consistency (Bristol Stool Scale): significant improvement
5-HIAA and 5-HT levels
  24 hour urinary 5-HIAA levels: significant reduction
  blood 5-HT levels: reduction
